According to patent US20250352653A1, “NEURON TARGETED 2-DEOXYGLUCOSE DENDRIMER FOR IMAGING AND TREATMENT OF NEUROLOGICAL DISEASES” (Washington State University, priority 2024, published 2025):

Experiments:
[1] = free drug; cited from earlier work
Water solubility = assay type: physicochemical; details: Rosi and its 2DG-D conjugate
CATH.a neurons = assay: MTT cytocompatibility, CATH.a; assay type: cell-based; details: all tested concentrations, 24 h
Experimental: (§1) Cytocompatibility studies were carried out using MTT assay as described in our previous work. […] After this, all the treated cells were incubated with MTT for 3 h till the purple-colored formazan crystals appeared. For dissolving these crystals, cell culture grade DMSO was added to each of the wells and incubated for 15 min. Finally, the absorbance was recorded at 570 nm using Synergy H1 hybrid multi-mode microplate. The percentage cytocompatibility was calculated using equation 2. All the measurements were done in triplicates with proper controls.

[2] = tested on: human umbilical vein endothelial cells (HUVECs); assay: MTT cytocompatibility, HUVEC; assay type: cell-based; details: all tested concentrations, 24 h
Experimental: as §1

EOC 20 microglial cells = assay: MTT cytocompatibility, EOC 20; assay type: cell-based; details: all tested concentrations, 24 h
Experimental: as §1

TNF-α = assay: Quantitative TNF-α ELISA; assay type: cell-based; details: LPS:H2O2 induced CATH.a, control 1-fold
Experimental: For determining the effect of 2DG-D-Rosi conjugates on the neuro-inflammation under in vitro conditions, the expression levels of tumor necrosis factor-alpha (TNF-α) and interleukin-6 (IL-6) were analyzed using an enzyme-linked immunosorbent assay (ELISA). The protocol was adapted from previously published literature with slight modifications. Briefly, CATH.a neurons (5×10^4 cells/well) were seeded into 96-well plates and cultured overnight. […] Following the treatment, the consumed culture media was collected and centrifuged at 12,000×g for 10 minutes to remove cellular debris. A 50 μL aliquot of the supernatant was added to ELISA plates pre-coated with primary antibodies for TNF-α and IL-6, respectively, and incubated for approximately 2 h. The cytokine concentrations (pg/mL) were determined using standard calibration curves provided in the ELISA kit, adhering to the manufacturer's instructions. All experiments were performed in triplicates, with appropriate controls.

IL-6 = assay: Quantitative IL-6 ELISA; assay type: cell-based; details: LPS:H2O2 induced CATH.a, control ~1-fold
Experimental: For determining the effect of 2DG-D-Rosi conjugates on the neuro-inflammation under in vitro conditions, the expression levels of tumor necrosis factor-alpha (TNF-α) and interleukin-6 (IL-6) were analyzed using an enzyme-linked immunosorbent assay (ELISA). The protocol was adapted from previously published literature with slight modifications. Briefly, CATH.a neurons (5×10^4 cells/well) were seeded into 96-well plates and cultured overnight. The cells were pre-treated with lipopolysaccharide (LPS; 1 μg/mL) and hydrogen peroxide (H2O2, 100 μM) and then incubated with 2DG-D-Rosi conjugates at varying concentrations (50, 100, and 250 μg/mL) for 24 hours at 37° C. in a CO2 incubator. Following the treatment, the consumed culture media was collected and centrifuged at 12,000×g for 10 minutes to remove cellular debris. A 50 μL aliquot of the supernatant was added to ELISA plates pre-coated with primary antibodies for TNF-α and IL-6, respectively, and incubated for approximately 2 h. The cytokine concentrations (pg/mL) were determined using standard calibration curves provided in the ELISA kit, adhering to the manufacturer's instructions. All experiments were performed in triplicates, with appropriate controls.

CATH.a cells [3] = assay: JC-1 mitochondrial membrane potential (MMP) assay; assay type: cell-based; details: for MFI of J-monomers (confocal): control ~141
Experimental: The JC-1 Mitochondrial Membrane Potential (MMP) Assay was used to assess 2DG-D-Rosi effects on CATH.a cells under TBI-like conditions via flow cytometry and confocal microscopy. Cells were pre-treated with LPS (1 μg/mL) and H2O2 (100 μM), followed by 2DG-D-Rosi treatment for 24 hours at 37° C., 5% CO2. After incubation, cells were stained with 2 μM JC-1 dye for 20 minutes at 37° C. in the dark. For flow cytometry, cells were analyzed on an Attune NxT® Flow Cytometer, with JC-1 monomers (green, depolarized mitochondria) detected in BL-1 (530/30 nm) and J-aggregates (red, polarized mitochondria) in YL-1 (585/16 nm). For confocal microscopy, cells were seeded on poly-L-lysine-coated coverslips, stained with JC-1, counterstained with DAPI, and imaged using a Leica SP-5 Confocal Microscope (20× water immersion magnification). The experiment was conducted in triplicate (n=3), and data were analyzed using GraphPad Prism® with statistical significance determined by a two-tailed t-test.

CATH.a cells [4] = assay: Annexin V/propidium iodide assay; assay type: cell-based; details: 250 μg/mL
Experimental: Apoptosis/necrosis was assessed in CATH.a cells using the FITC ApoScreen® Annexin V Apoptosis Kit. Cells were pre-treated with LPS (1 μg/mL) and H2O2 (100 μM) for 6 hours to mimic TBI-like conditions, followed by 2DG-D-Rosi treatment for 24 hours at 37° C., 5% CO2. After incubation, cells were harvested, washed twice with cold PBS, and resuspended in 100 μL of 1× Annexin Binding Buffer. Staining was performed with 10 μL Annexin V-FITC and 10 μL Propidium Iodide (PI) for 15 minutes at 2-8° C. in the dark, followed by dilution with 380 μL 1× Annexin Binding Buffer. Samples were analyzed on an Attune NxT® Flow Cytometer using BL-1 (530/30 nm) for Annexin V-FITC and YL-1 (585/16 nm) for PI. Controls included unstained, Annexin V-only, and PI-only samples. Density plots were generated to classify viable, early apoptotic, necrotic, and late apoptotic/necrotic cells. The experiment was performed in triplicate (n=3), and data was analyzed using GraphPad Prism® with statistical significance determined by a two-tailed t-test.

Caspase-3/7 = Caspase-3/7 activity assay; assay type: cell-based; details: for caspase activity (confocal, ImageJ): control 100%
Experimental: For flow cytometry, 1×10^5lls per sample were incubated with Pheno Vue® 505 caspase-3/7 stain in fresh medium for 30 minutes, washed with PBS, and analyzed on an Attune NxT® Flow Cytometer using BL-1 (530/30 nm) for caspase activation detection. For confocal microscopy, 2×10^5 cells per well were seeded on poly-L-lysine-coated coverslips, stained with caspase-3/7 reagent, fixed in 4% PFA, permeabilized with 0.1% Triton® X-100, and counterstained with DAPI. Coverslips were mounted with Vectashield Plus® antifade medium and imaged using a Leica SP-5 Confocal Microscope (20× water immersion lens). The experiment was conducted in triplicate (n=3), and statistical significance was determined using GraphPad Prism® with a two-tailed t-test.

PPARγ = PPARγ expression by flow cytometry and immunofluorescence; assay type: cell-based; details: for PPARγ expression (confocal, ImageJ): LPS:H2O2 group 1-fold
Experimental: For flow cytometry, 1×10^5 cells per sample were fixed in 4% PFA, permeabilized with 0.2% Triton® X-100, blocked with 3% BSA, and incubated overnight at 4° C. with an anti-PPARγ antibody.
For immunofluorescence, 5×10^4 cells per well were grown on poly-L-lysine-coated coverslips, treated, washed, and blocked with 3% BSA, followed by overnight incubation with an anti-PPARγ antibody at 4° C. on a 3D shaker. […] Imaging was performed using a […] SP5 Confocal Microscope (20× water immersion lens). The experiment was conducted in triplicate (n=3), and statistical significance was determined using GraphPad Prism® with a two-tailed t-test.

For `CCc1ccc(CCOc2ccc(CC3SC(=O)NC3=O)cc2)nc1` (stereo not drawn) [Pio, pioglitazone], the “water solubility of free Pio” value [1] is listed as 4.42 µg/mL.
With `CN(CCOc1ccc(CC2SC(=O)NC2=O)cc1)c1ccccn1` (stereo not drawn) [Rosi, rosiglitazone] the “solubility in water” value (Water solubility) was “sparingly soluble”, the “cytotoxicity (MTT)” value (CATH.a neurons) was “No toxic effects” and the “cytotoxicity (MTT)” value [2] was “No toxic effects”. For the same compound, the “cytotoxicity (MTT)” value (EOC 20 microglial cells) was “No toxic effects”, the TNF-α levels (TNF-α; 100 μg/mL) was 0.91 fold and the TNF-α levels (TNF-α; 250 μg/mL) was 0.85 fold. For the same compound, the TNF-α levels (TNF-α; 500 μg/mL) was 0.77 fold, the IL-6 levels (IL-6; 50 μg/mL) was 0.88 fold and the IL-6 levels (IL-6; 100 μg/mL) was 0.86 fold. The IL-6 levels (IL-6; 250 μg/mL) was 0.67 fold, the “MFI of J-monomers (confocal)” value (CATH.a cells [3]; 50 μg/mL) was roughly 89 and the “MFI of J-monomers (confocal)” value (CATH.a cells [3]; 100 μg/mL) was 74. For the same compound, the “MFI of J-aggregates (red fluorescence)” value (CATH.a cells [3]; 250 μg/mL, LPS:H2O2 group ~2.7) was roughly 78.1, the “MFI of J-monomers (confocal)” value (CATH.a cells [3]; 250 μg/mL) was 72 and the “healthy mitochondria, flow cytometry” value (CATH.a cells [3]; LPS+H2O2 ~0.24%, 2DG-D and Rosi at 250) was roughly 21.54%. For the same compound, the “depolarized mitochondria (J-Mon+/J-Agg-), flow cytometry” value (CATH.a cells [3]; LPS+H2O2 ~95.13%, 2DG-D and Rosi at 250) was roughly 69.73%, the necrosis (CATH.a cells [4]; LPS:H2O2 treated CATH.a (~31.07%)) was roughly 1.67% and the apoptosis (CATH.a cells [4]; LPS:H2O2 treated CATH.a) was roughly 54.6%. The “caspase activity (confocal, ImageJ)” value (Caspase-3/7; 50 μg/mL) was roughly 75%, the “caspase activity (confocal, ImageJ)” value (Caspase-3/7; 100 μg/mL) was roughly 63% and the “caspase activity (confocal, ImageJ)” value (Caspase-3/7; 250 μg/mL) was roughly 68%. The “lowering of caspase activity” value (Caspase-3/7; free Rosi vs LPS:H2O2, flow cytometry) was roughly 70%, the “PPARγ expression (confocal, ImageJ)” value (PPARγ; 50 μg/mL) was 1.82 fold and the “PPARγ expression (confocal, ImageJ)” value (PPARγ; 100 μg/mL) was 1.79 fold. For the same compound, the “PPARγ expression (confocal, ImageJ)” value (PPARγ; 250 μg/mL) was 1.9 fold and the “PPARγ expression MFI (flow cytometry)” value (PPARγ; LPS+H2O2 ~206, untreated ~112) was roughly 556.
